{"source": "PubChem BioAssay (NCI)", "experiment_in_all_cases": "NCI-60 cell line screen, 48 h", "key": {"[1]": {"system": "HOP-18 NSCLC"}, "[2]": {"system": "UO-31 renal"}, "[3]": {"system": "ACHN renal"}, "[4]": {"system": "BT-549 breast"}, "[5]": {"system": "NCI/ADR-RES ovarian"}, "[6]": {"system": "SNB-19 CNS"}, "[7]": {"system": "KM20L2 colon"}, "[8]": {"system": "U251 CNS"}, "[9]": {"system": "SF-539 CNS"}, "[10]": {"system": "PC-3 prostate"}, "[11]": {"system": "A498 renal"}, "[12]": {"system": "MALME-3M melanoma"}, "[13]": {"system": "HCT-15 colon"}, "[14]": {"system": "NCI-H226 lung"}, "[15]": {"system": "DLD-1 colon"}, "[16]": {"system": "RXF 393 renal"}, "[17]": {"system": "COLO 205 colon"}, "[18]": {"system": "HT29 colon"}, "[19]": {"system": "HCC-2998 colon"}, "[20]": {"system": "EKVX NSCLC"}, "[21]": {"system": "MDA-N"}, "[22]": {"system": "CAKI-1 renal"}, "[23]": {"system": "M19-MEL melanoma"}, "[24]": {"system": "DMS 114 small cell lung"}, "[25]": {"system": "SK-MEL-5 melanoma"}, "[26]": {"system": "MOLT-4 leukemia"}, "[27]": {"system": "NCI-H522 lung"}, "[28]": {"system": "CCRF-CEM leukemia"}, "[29]": {"system": "SW-620 colon"}, "[30]": {"system": "KM12 colon"}, "[31]": {"system": "OVCAR-3 ovarian"}, "[32]": {"system": "OVCAR-8 ovarian"}, "[33]": {"system": "LOX IMVI melanoma"}, "[34]": {"system": "TK-10 renal"}, "[35]": {"system": "OVCAR-4 ovarian"}, "[36]": {"system": "IGROV1 ovarian"}, "[37]": {"system": "SNB-75 CNS"}, "[38]": {"system": "RPMI-8226 leukemia"}, "[39]": {"system": "SK-MEL-2 melanoma"}, "[40]": {"system": "M14 melanoma"}, "[41]": {"system": "LXFL 529 NSCLC"}, "[42]": {"system": "UACC-257 melanoma"}, "[43]": {"system": "SK-MEL-28 melanoma"}, "[44]": {"system": "XF 498 CNS"}, "[45]": {"system": "786-0 renal"}, "[46]": {"system": "MCF7 breast"}, "[47]": {"system": "A549 NSCLC"}, "[48]": {"system": "SF-295 CNS"}, "[49]": {"system": "HS 578T breast"}, "[50]": {"system": "HCT-116 colon"}, "[51]": {"system": "SK-OV-3 ovarian"}, "[52]": {"system": "DMS 273 small cell lung"}, "[53]": {"system": "RXF-631 renal"}, "[54]": {"system": "NCI-H460 lung"}, "[55]": {"system": "T-47D breast"}, "[56]": {"system": "UACC-62 melanoma"}, "[57]": {"system": "MDA-MB-435"}, "[58]": {"system": "MDA-MB-231 breast"}, "[59]": {"system": "HOP-62 NSCLC"}, "[60]": {"system": "OVCAR-5 ovarian"}, "[61]": {"system": "SNB-78 CNS"}, "[62]": {"system": "HOP-92 NSCLC"}, "[63]": {"system": "SN12C renal"}, "[64]": {"system": "HL-60(TB) leukemia"}, "[65]": {"system": "SR leukemia"}, "[66]": {"system": "DU-145 prostate"}, "[67]": {"system": "SF-268 CNS"}, "[68]": {"system": "K-562 leukemia"}, "[69]": {"system": "NCI-H23 lung"}}, "note": "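In this assay, cells in 96-well plates receive the compound at five concentrations for 48 hours. Endpoints are linearly interpolated between the surrounding concentrations. The concentration for full growth arrest is given as TGI.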"}
{"smiles": "CC1(C)CC(Nc2ccc(Nc3ccccc3)cc2)CC(C)(C)N1", "values": [{"measurement": "TGI", "setting": "[1]", "value": "> 100", "unit": "µM"}, {"measurement": "TGI", "setting": "[2]", "value": 24.6, "unit": "µM"}, {"measurement": "TGI", "setting": "[3]", "value": 37.2, "unit": "µM"}, {"measurement": "TGI", "setting": "[4]", "value": 27, "unit": "µM"}, {"measurement": "TGI", "setting": "[5]", "value": 66.9, "unit": "µM"}, {"measurement": "TGI", "setting": "[6]", "value": "> 80.7", "unit": "µM"}, {"measurement": "TGI", "setting": "[7]", "value": "> 78.6", "unit": "µM"}, {"measurement": "TGI", "setting": "[8]", "value": 40.1, "unit": "µM"}, {"measurement": "TGI", "setting": "[9]", "value": 41.9, "unit": "µM"}, {"measurement": "TGI", "setting": "[10]", "value": 32.3, "unit": "µM"}, {"measurement": "TGI", "setting": "[11]", "value": 55.3, "unit": "µM"}, {"measurement": "TGI", "setting": "[12]", "value": 35.8, "unit": "µM"}, {"measurement": "TGI", "setting": "[13]", "value": 70.4, "unit": "µM"}, {"measurement": "TGI", "setting": "[14]", "value": 40.8, "unit": "µM"}, {"measurement": "TGI", "setting": "[15]", "value": "> 100", "unit": "µM"}, {"measurement": "TGI", "setting": "[16]", "value": 47.5, "unit": "µM"}, {"measurement": "TGI", "setting": "[17]", "value": 32.5, "unit": "µM"}, {"measurement": "TGI", "setting": "[18]", "value": 50.7, "unit": "µM"}, {"measurement": "TGI", "setting": "[19]", "value": 32.7, "unit": "µM"}, {"measurement": "TGI", "setting": "[20]", "value": 81.4, "unit": "µM"}, {"measurement": "TGI", "setting": "[21]", "value": 32.7, "unit": "µM"}, {"measurement": "TGI", "setting": "[22]", "value": 53.1, "unit": "µM"}, {"measurement": "TGI", "setting": "[23]", "value": "> 94.2", "unit": "µM"}, {"measurement": "TGI", "setting": "[24]", "value": 42.9, "unit": "µM"}, {"measurement": "TGI", "setting": "[25]", "value": 30.5, "unit": "µM"}, {"measurement": "TGI", "setting": "[26]", "value": 53.7, "unit": "µM"}, {"measurement": "TGI", "setting": "[27]", "value": 26.6, "unit": "µM"}, {"measurement": "TGI", "setting": "[28]", "value": 29.9, "unit": "µM"}, {"measurement": "TGI", "setting": "[29]", "value": 49, "unit": "µM"}, {"measurement": "TGI", "setting": "[30]", "value": 71.2, "unit": "µM"}, {"measurement": "TGI", "setting": "[31]", "value": 41.8, "unit": "µM"}, {"measurement": "TGI", "setting": "[32]", "value": 66.3, "unit": "µM"}, {"measurement": "TGI", "setting": "[33]", "value": 43.1, "unit": "µM"}, {"measurement": "TGI", "setting": "[34]", "value": 48.5, "unit": "µM"}, {"measurement": "TGI", "setting": "[35]", "value": 61.9, "unit": "µM"}, {"measurement": "TGI", "setting": "[36]", "value": 78.6, "unit": "µM"}, {"measurement": "TGI", "setting": "[37]", "value": "> 100", "unit": "µM"}, {"measurement": "TGI", "setting": "[38]", "value": 37.3, "unit": "µM"}, {"measurement": "TGI", "setting": "[39]", "value": 52.9, "unit": "µM"}, {"measurement": "TGI", "setting": "[40]", "value": 34.7, "unit": "µM"}, {"measurement": "TGI", "setting": "[41]", "value": "> 56.8", "unit": "µM"}, {"measurement": "TGI", "setting": "[42]", "value": 23.9, "unit": "µM"}, {"measurement": "TGI", "setting": "[43]", "value": 33.8, "unit": "µM"}, {"measurement": "TGI", "setting": "[44]", "value": "> 54.2", "unit": "µM"}, {"measurement": "TGI", "setting": "[45]", "value": 49.2, "unit": "µM"}, {"measurement": "TGI", "setting": "[46]", "value": 33.5, "unit": "µM"}, {"measurement": "TGI", "setting": "[47]", "value": "> 86.2", "unit": "µM"}, {"measurement": "TGI", "setting": "[48]", "value": "> 95.3", "unit": "µM"}, {"measurement": "TGI", "setting": "[49]", "value": 48.8, "unit": "µM"}, {"measurement": "TGI", "setting": "[50]", "value": 62.3, "unit": "µM"}, {"measurement": "TGI", "setting": "[51]", "value": "> 100", "unit": "µM"}, {"measurement": "TGI", "setting": "[52]", "value": "> 100", "unit": "µM"}, {"measurement": "TGI", "setting": "[53]", "value": "> 31.6", "unit": "µM"}, {"measurement": "TGI", "setting": "[54]", "value": 64, "unit": "µM"}, {"measurement": "TGI", "setting": "[55]", "value": 37.5, "unit": "µM"}, {"measurement": "TGI", "setting": "[56]", "value": 28.1, "unit": "µM"}, {"measurement": "TGI", "setting": "[57]", "value": 33.6, "unit": "µM"}, {"measurement": "TGI", "setting": "[58]", "value": 32.4, "unit": "µM"}, {"measurement": "TGI", "setting": "[59]", "value": 77.3, "unit": "µM"}, {"measurement": "TGI", "setting": "[60]", "value": "> 63.1", "unit": "µM"}, {"measurement": "TGI", "setting": "[61]", "value": "> 100", "unit": "µM"}, {"measurement": "TGI", "setting": "[62]", "value": 33.9, "unit": "µM"}, {"measurement": "TGI", "setting": "[63]", "value": 80.6, "unit": "µM"}, {"measurement": "TGI", "setting": "[64]", "value": 19.2, "unit": "µM"}, {"measurement": "TGI", "setting": "[65]", "value": 50.2, "unit": "µM"}, {"measurement": "TGI", "setting": "[66]", "value": 61.1, "unit": "µM"}, {"measurement": "TGI", "setting": "[67]", "value": "> 85.4", "unit": "µM"}, {"measurement": "TGI", "setting": "[68]", "value": 39.2, "unit": "µM"}, {"measurement": "TGI", "setting": "[69]", "value": 63.7, "unit": "µM"}]}
